{
  "source": "patent US20240261426A1",
  "about": "“CONJUGATES COMPRISING PHOSPHOANTIGENS AND THEIR USE IN THERAPY” (BYONDIS B.V., priority 2021, published 2024)",
  "molecules": {"B1": {"name": "rituximab (anti-CD20 monoclonal antibody) (antibody, V domains shown)", "VH": "QVQLQQPGAELVKPGASVKMSCKASGYTFTSYNMHWVKQTPGRGLEWIGAIYPGNGDTSYNQKFKGKATLTADKSSSTAYMQLSSLTSEDSAVYYCARSTYYGGDWYFNVWGAGTTVTVSA", "VL": "QIVLSQSPAILSASPGEKVTMTCRASSSVSYIHWFQQKPGSSPKPWIYATSNLASGVPVRFSGSGSGTSYSLTISRVEAEDAATYYCQQWTSNPPTFGGGTKLEIK"}},
  "key": {"Vδ2 γδ T-cells [1]": {"test_system": "Vδ2 γδ T-cells", "assay": "Functional assay with pretreated CD20 positive B-cell lines (CD107a read-out)", "type": "cell-based, human", "conditions": "all tested B-cell lines (Raji, HG-3, MEC-1, SU-DHL-4, SU-DHL-8)"}, "Vδ2 γδ T-cells [2]": {"test_system": "Vδ2 γδ T-cells", "assay": "Functional assay with pretreated HER2-positive cell lines", "type": "cell-based, human", "conditions": "pretreated HCT-116 cells (low HER2)"}, "Vδ2 γδ T-cells [3]": {"test_system": "Vδ2 γδ T-cells", "assay": "Functional assay with pretreated MOLM-13 or Raji cells, different DAR (CD107a)", "type": "cell-based, human", "procedure": "The functional assay was performed as disclosed in Example 23, with the exception that Raji and MOLM-13 cells were pretreated for 16 or 40 hours with antibodies/ADCs/controls (Table 13). Furthermore, CD107a degranulation levels were determined only and not IFNγ expression levels. Thus, on the third experimental days, cells were directly analyzed on the BD FACSymphony A3 Cell analyzer (BD Biosciences, San Jose, CA, USA), before incubation with BD Perm/wash. […] EC50 values were calculated in GraphPad Prism as the concentration in μg/mL that gives a response half way between bottom and top of the curve. […] Raji cells were cultured as described in Example 23. The CD123-positive acute monocytic leukemia cell line MOLM-13 (DSMZ, ACC 554, the German collection of Microorganisms and cell cultures GmbH (Leibniz Institute, Germany)) was cultured in CGM and was maintained at 37° C. in a humidified incubator containing 5% CO2 and sub-cultured twice a week."}, "Vδ2 γδ T-cells [4]": {"test_system": "Vδ2 γδ T-cells", "assay": "Functional assay: Vδ2 γδ T-cell activation (CD107a, IFNγ, TNFα) after co-culture of PBMCs with pretreated Raji cells", "type": "cell-based, human", "conditions": "for IFNγ production and degranulation of Vδ2 γδ T-cells compared to pretreatment with HMBPP: pre-treated Raji cells; for IFNγ production and degranulation (CD107a) of Vδ2 γδ T-cells, in words: pretreated Raji cells co-cultured with PBMCs", "procedure": "(§1) To determine (unconjugated) phosphoantigen prodrug activity, Raji target cells were pre-incubated with XC1 and XD1, prior to co-culture with peripheral blood mononuclear cells (PBMCs) containing effector cells. Selective gammadelta T-cell activation was studied in vitro after co-culture of PBMCs with tumor cells (from the CD20-positive Burkitt's Lymphoma human tumor cell line Raji) pretreated with phosphoantigen HMBPP, phosphoantigen prodrugs XC1, XD1, or the conjugates listed in Table 1.\n(§2) The CD20-positive Burkitt's Lymphoma human tumor cell line Raji (DSMZ, the German collection of Microorganisms and cell cultures GmbH (Leibniz Institute, Germany)) was used for in vitro experiments. Raji cells were cultured in complete growth medium (CGM): RPMI-1640 (Lonza, Walkersville, MD, USA) supplemented with 10% Heat-inactivated (HI) Fetal Bovine Serum (FBS) (Gibco-Life Technologies; Carlsbad, CA) and 80 U/mL Penicillin-Streptomycin solution (Lonza Group Ltd, Basel Switzerland). Raji cells were maintained at 37° C. in a humidified incubator containing 5% CO2 and sub-cultured twice a week.\nFor stimulation with conjugates according to the invention (ADCs), unconjugated phosphoantigen prodrugs and HMBPP, Raji cells were harvested, diluted to a concentration of 5×10^6 cells/mL and 50 μL (equivalent to 250.000 cells/well) of this cell suspension was seeded into a 96-well plate. A 2-times concentrated, 10-fold serial dilution of the prodrugs and ADC was prepared in CGM. Plated Raji cells were incubated overnight (O/N) in a humidified incubator with 5% CO2 at 37° C. with 50 μL/well of the serially-diluted compounds.\nThe following day, the 96 well plate with Raji cells and compounds (ADCs, unconjugated phosphoantigen prodrugs or HMBPP) was washed by adding 100 μL/well CGM, centrifugation at 300×g for 3 minutes at room temperature (RT), and removal of supernatant in order to remove excessive unbound compound.\nAs a source of immune cells, frozen peripheral blood mononuclear cells (PBMCs) of a healthy human donor were thawed, resuspended in CGM and placed O/N in a humidified incubator with 5% CO2 at 37° C. to let the cells recover.\nThe recovered PBMCs were harvested, counted and diluted to a concentration of 10×10^6 cells/mL in CGM, and 50 μL/well (equivalent to 0.5×10^6 cells/well) was added to the Raji cells. […] In all experiments, 1% Phytohemagglutinin (PHA-M, Gibco-ThermoFisher), known as an aspecific activator of immune cells, was also included in a well to serve as a positive control. Samples were incubated for 6 hours in a humidified incubator with 5% CO2 at 37° C. […]"}, "[5]": {"test_system": "NK cells, CD8+ T-cells, Vδ1 γδ T-cells", "assay": "Functional assay: activation of other immune cells after co-culture of PBMCs with pretreated Raji cells", "type": "cell-based, human", "conditions": "pretreated Raji cells co-cultured with PBMCs; PHA-M added to co-culture", "procedure": "as §1\nas §2, with “week. […]” for “week.”\nThe recovered PBMCs were harvested, counted and diluted to a concentration of 10×10^6 cells/mL in CGM, and 50 μL/well (equivalent to 0.5×10^6 cells/well) was added to the Raji cells. […]"}, "Raji cells [6]": {"test_system": "Raji cells", "assay": "Direct compound-related cell death (CellTiter-Glo, 6 days)", "type": "cell-based, human", "conditions": "6 days incubation, positive control", "procedure": "Metabolic activity was assessed after 6 days, using the CellTiter-Glo™ (CTG) luminescent assay kit from Promega Corporation (Madison, WI) according to the manufacturer's instructions. Cell viability was expressed as the percentage survival relative to the average mean of untreated cells or vehicle-treated cells (only growth medium or 1% DMSO) multiplied with 100. The efficacy was calculated by subtracting the bottom of the dose response curve (DRC) from 100%."}, "Raji cells [7]": {"test_system": "Raji cells", "assay": "Cellular binding to Raji cells (flow cytometry)", "set-up": "species or system human", "procedure": "Raji cells were cultured as described in Example 23. […] After an incubation time of 30 minutes at 4° C., the cells were washed twice with ice-cold FACS buffer. […] After 30 minutes at 4° C., cells were washed twice and resuspended in 150 μL ice-cold FACS buffer. Fluorescence intensities were determined by flow cytometry using the FACSVerse or FACSymphony (BD Biosciences) and indicated as the median fluorescence intensity (MFI). Curves were fitted by nonlinear regression with a variable slope (four parameters) in GraphPad Prism version 9. EC50 values were calculated in GraphPad Prism as the concentration in μg/mL that gives a response halfway between bottom and top of the curve. Binding experiments were performed N=2 or N=3 times."}, "[8]": {"molecular_target": "T1, CD20 on Raji cells (CD20-positive Burkitt's Lymphoma human tumor cell line) (human, UniProt P11836 1-297)", "T1 construct": "whole, on cells", "T1 sequence (looked up)": "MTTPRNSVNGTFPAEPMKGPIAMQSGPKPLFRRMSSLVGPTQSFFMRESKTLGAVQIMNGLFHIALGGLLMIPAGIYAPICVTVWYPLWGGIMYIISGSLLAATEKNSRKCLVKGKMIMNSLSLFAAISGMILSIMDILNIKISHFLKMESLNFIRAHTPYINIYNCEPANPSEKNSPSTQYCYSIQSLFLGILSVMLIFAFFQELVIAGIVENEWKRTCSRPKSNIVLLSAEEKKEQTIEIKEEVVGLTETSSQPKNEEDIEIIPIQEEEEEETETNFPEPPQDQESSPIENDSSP", "assay": "flow cytometry on CD20-positive Raji cells, APC anti-human IgG F(ab')2 secondary, MFI curve fit; experiment 1 and 2"}, "[9]": {"molecular_target": "T1, CD20 on Raji cells (CD20-positive …)", "assay": "flow cytometry on CD20-positive Raji cells, APC anti-human IgG F(ab')2 secondary, MFI curve fit; experiment 3 and 4"}, "[10]": {"molecular_target": "T1, CD20 on Raji cells (CD20-positive …)", "assay": "flow cytometry on CD20-positive Raji cells, APC anti-human IgG F(ab')2 secondary, MFI curve fit; experiment 5, 6 and 7"}},
  "data": [
    {"molecule": "C/C(=C\\COP(=O)(O)OP(=O)(O)O)CO", "note": "[HMBPP, (E)-4-Hydroxy-3-methyl-but-2-enyl pyrophosphate]", "values": [
      {"measurement": "activation (degranulation) of Vδ2 γδ T-cells, in words", "setting": "Vδ2 γδ T-cells [1]", "result": "induced degranulation of Vδ2 γδ T-cells"},
      {"measurement": "activation of Vδ2 γδ T-cells, in words", "setting": "Vδ2 γδ T-cells [2]", "result": "able to activate Vδ2 γδ T-cells"},
      {"measurement": "Vδ2 γδ T-cell activation, in words", "setting": "Vδ2 γδ T-cells [3]", "result": "capable of activating Vδ2 γδ T-cells"}
    ]},
    {"molecule": "C/C(=C\\CCP(=O)(OCOC(=O)C(C)(C)C)OCOC(=O)C(C)(C)C)CO", "note": "[XC1]", "values": [
      {"measurement": "IFNγ production and degranulation of Vδ2 γδ T-cells compared to pretreatment with HMBPP", "setting": "Vδ2 γδ T-cells [4]", "result": "more potently induced"},
      {"measurement": "IFNγ production and degranulation (CD107a) of Vδ2 γδ T-cells, in words", "setting": "Vδ2 γδ T-cells [4]", "result": "dose-dependently induced IFNγ production and degranulation"},
      {"measurement": "activation of other immune cells (NK cells, CD8+ T-cells, Vδ1 γδ T-cells), in words", "setting": "[5]", "result": "without inducing direct activation of other immune cells"}
    ]},
    {"molecule": "C/C(=C\\CCP(=O)(N[C@@H](C)C(=O)OCc1ccccc1)Oc1ccccc1)CO", "note": "(stereo partly shown) [XD1]", "values": [
      {"measurement": "IFNγ production and degranulation of Vδ2 γδ T-cells compared to pretreatment with HMBPP", "setting": "Vδ2 γδ T-cells [4]", "result": "more potently induced"},
      {"measurement": "IFNγ production and degranulation (CD107a) of Vδ2 γδ T-cells, in words", "setting": "Vδ2 γδ T-cells [4]", "result": "dose-dependently induced IFNγ production and degranulation"},
      {"measurement": "activation of other immune cells (NK cells, CD8+ T-cells, Vδ1 γδ T-cells), in words", "setting": "[5]", "result": "without inducing direct activation of other immune cells"}
    ]},
    {"molecule": "COC(=O)c1cc2c([nH]1)C(=O)C=C1N(C(=O)c3cc4cc(OC)c(OC)c(OC)c4[nH]3)C[C@H]3C[C@]123", "note": "[duocarmycin type toxin]", "values": [
      {"measurement": "direct compound related cell death, in words", "setting": "Raji cells [6]", "result": "very effective"}
    ]},
    {"molecule": "rituximab: Anti-CD20 monoclonal antibody (MoAb) [reference compound]", "values": [
      {"measurement": "Binding to Raji cells EC50", "setting": "Raji cells [7]; Experiment 1 and 2", "result": 0.6, "unit": "µg/mL"},
      {"measurement": "Binding to Raji cells EC50", "setting": "Raji cells [7]; Experiment 3 and 4", "result": 1.221, "unit": "µg/mL"},
      {"measurement": "Binding to Raji cells EC50", "setting": "Raji cells [7]; Experiment 5, 6 and 7", "result": 3.451, "unit": "µg/mL"}
    ]},
    {"molecule": "B1", "values": [
      {"measurement": "EC50", "setting": "[8]", "result": 0.6, "unit": "µg/mL"},
      {"measurement": "EC50", "setting": "[9]", "result": 1.22, "unit": "µg/mL"},
      {"measurement": "EC50", "setting": "[10]", "result": 3.45, "unit": "µg/mL"}
    ]}
  ]
}
